Several values for one entry are separate records, joined by “and”; a condition that tells them apart may be missing. Equal values may be shown once. Marks after values point to notes of the source that are not given here.
Test system: patients suffering from Alzheimer's disease
Assay: Clinical trial of dimebon tablets, inventors' scale (E. E. Bukatina et al.; 0 = absence of a symptom, 4 = greatest manifestation)
Assay type: in vivo, human
Procedure: The test was carried out under the direct supervision by two of the inventors, namely E. E. Bukatina and V. Grigorieva, in 14 patients who agreed to take part in the tests, 13 of whom lived in a boarding house for senile persons and one patient lived with their family.
Alzheimer's disease was diagnosed on the basis of criteria ICD-10 NINCDS ADRDA.
Dimebon in the form of tablets (comprising 10 mg of dimebon, 30 mg of lactose, 5 mg of magnesium stearate was prescribed for oral administration in a dose of 0.02 g three to times a day. The patients living in the boarding house received dimebon for 58 days. A patient (observation 14) who was under outpatient observation continued taking the agent for a month after the completion of the tests.
Before the treatment with dimebon, and at 4 and 8 weeks after treatment the patients were examined according to Hazegawa's scale and the inventors' scale (“Social and Clinical Psychiatry”, 1992, No.4, pp.29–37) which includes the following indexes: (1) orientation in locality, time, immediate surroundings and one's own personality; (2) orientation in space; (3) memory for the past; (4) memory for the present; (5) “life in the past”; (6) (a) articulation, (b) difficulty in finding words, and distortion of words; (c) naming of objects; (d) following instructions; (7) concentration (of attention); (8) an affective sphere; (a) high spirits, (b) low spirits; (9) delirium; (10) hearing hallucinations; (11) visual hallucinations; (12) senile or senile-like confusion (when motion anxiety is accompanied by the revival of the past experience); (13) irritability; (14) anxiety; (15) asthenia; (16) headaches; (17) dizziness; (18) tearfulness; (19) spontaneous activity; (20) elementary self-service; and (21 control of sphincters.
According to the Hazegawa's scale, the 0 score indicates the poorest result; on the contrary, according to the inventors' scale, the 0 score indicates the absence of a symptom 4 score indicates the greatest manifestation thereof. […] Before the therapy was started, the patients had been independently examined by two doctors who used the inventors' scale. The examination during the treatment was carried out by the doctors using both the scales. The evaluation according to all the inventors' scale points during all the tests and their variations during the treatment with dimebon are given in the Appendix.
According to the inventors' scale, the degree of the disturbance if the cognitive functions was determined by a sum of evaluations according to the first 5 scale points reflecting the condition of memory, orientation and relation with the reality. The disturbance of speech was dealt with separately and was determined by a sum of evaluations according to items 6b-6d.
Both absolute evaluations of the signs under investigation (the evaluation prior to treatment is a mean evaluation of the two examinations) and variations in them were analysed in the course of therapy. In doing so, only those changes that were beyond the range of evaluations obtained in two pre-treatment examinations were taken into consideration.
The test results reflected the condition of the patients at the time of the examination. Any changes in the metal state observed in the interval between the tests and disappearing by the moment of examination according to the scale were described in the section “Clinical Observations”.
The statistical data processing was carried out by means of Student's t-test and Fisher's “Fi” criterion.

[1] = score after 4 weeks, per patient, listed as dimebon
[2] = score after 8 weeks, per patient, listed as dimebon

In the case of Cc1ccc2c(c1)c1c(n2CCc2ccc(C)nc2)CCN(C)C1 [No. 10, 2,8-dimethyl-5-[2-(6-methyl-3-pyridyl)ethyl]-2,3,4,5-tetrahydro-1H-pyrido[4,3-b]indole], the “share of patients with improvement of depression” value (of 11 patients with depressive symptoms prior to treatment, 8 weeks) is reported as 55%, the “2. Orientation in space, 4 weeks” value [1] is reported as 0 (10×) and 1 and 1.5 (2×) and 0.5 and the “4. Memory for the present, 4 weeks” value [1] is reported as 1.5 and 2 (4×) and 1 (3×) and 3 (5×) and 3.5. The “5. Life in the past, 4 weeks” value [1] was 1 (2×) and 1.5 (2×) and 0.5 (2×) and 2.5 (3×) and 2 (4×) and 3, the “6b. Difficulty in finding words, 4 weeks” value [1] was 0 (9×) and 1 (2×) and 1.5 and 0.5 and 2 and the “6c. Naming of objects, 4 weeks” value [1] was 0 (7×) and 1 (4×) and 2 (3×). The “7. Concentration, 4 weeks” value [1] was 1.5 (2×) and 0 and 1 (3×) and 3 (4×) and 2 (3×) and 0.5, the “8b. Lower spirits, 4 weeks” value [1] was 1 (4×) and 0 (7×) and 0.5 (2×) and 2 and the “9. Delirium, 4 weeks” value [1] was 0 (9×) and 1 (2×) and 2.5 and 1.5 and 2. The “13. Irritability, 4 weeks” value [1] was 0 (12×) and 2 and 1, the “14. Anxiety, 4 weeks” value [1] was 0 (10×) and 1 (4×) and the “15. Asthenia, 4 weeks” value [1] was 0 (11×) and 1 (2×) and 0.5. For the same molecule, the “16. Headache, 4 weeks” value [1] was 0.5 and 0 (11×) and 1 and 3, the “17. Dizziness, 4 weeks” value [1] was 0.5 and 0 (8×) and 1 (2×) and 2 and 2.5 and 3 and the “18. Tearfulness, 4 weeks” value [1] was 1 and 0 (13×). For the same molecule, the “19. Spontaneous activity, 4 weeks” value [1] was 1.5 and 1 (5×) and 0.5 and 2 (4×) and 0 (2×) and 3, the “20. Elementary self-service, 4 weeks” value [1] was 0 (13×) and 1 and the “6d. Performing instructions, 4 weeks” value [1] was 1 (4×) and 0 (8×) and 0.5 and 2. For the same molecule, the “1. Orientation in locality and time, 8 weeks” value (score after 8 weeks of treatment, per patient, listed as dimebon) was 2 (4×) and 3 (2×) and 1.5 (2×) and 0 and 0.5 (2×) and 1 (2×), the “18. Tearfulness, 8 weeks” value (score after 8 weeks, per patient) was 0 and the “2. Orientation in space, 8 weeks” value [2] was 0 (11×) and 1.5 and 1. For the same molecule, the “4. Memory for the present, 8 weeks” value [2] was 1 (4×) and 0.5 and 1.5 (2×) and 3 (4×) and 2 (2×) and 2.5, the “5. Life in the past, 8 weeks” value [2] was 0.5 (5×) and 1 (2×) and 3 (3×) and 1.5 and 2.5 (2×) and 2 and the “6b. Difficulty in finding words, 8 weeks” value [2] was 0 (11×) and 1.5 and 2 (2×). The “6c. Naming of objects, 8 weeks” value [2] was 0 (9×) and 1 (2×) and 2 (2×) and 1.5, the “7. Concentration, 8 weeks” value [2] was 1 (5×) and 0 and 3 and 2 (3×) and 3.5 and 2.5 and 4 and 0.5 and the “8b. Lower spirits, 8 weeks” value [2] was 0.5 (2×) and 0 (7×) and 1 (4×) and 1.5. For the same molecule, the “9. Delirium, 8 weeks” value [2] was 0 (9×) and 1.5 (2×) and 1 (2×) and 2, the “13. Irritability, 8 weeks” value [2] was 0 (12×) and +1 and 1 and the “14. Anxiety, 8 weeks” value [2] was 0 (11×) and 1 (2×) and 0.5. For the same molecule, the “15. Asthenia, 8 weeks” value [2] was 0 (13×) and 0.5, the “16. Headache, 8 weeks” value [2] was 0 (8×) and 1 (2×) and 2 and 1.5 and 0.5 and 3 and the “17. Dizziness, 8 weeks” value [2] was 0 (8×) and 1.5 and 3 and 2 and 1 (3×). For the same molecule, the “19. Spontaneous activity, 8 weeks” value [2] was 1 (7×) and 1.5 and 0 (3×) and 2 (2×) and 4, the “20. Elementary self-service, 8 weeks” value [2] was 0 (13×) and 2 and the “6d. Performing instructions, 8 weeks” value [2] was 1 (5×) and 2.5 and 0 (8×). For the same molecule, the “Cognitive functions (first 5 scale points): improvements, %” value (“Cognitive functions … %” for short) (slight (by 0.5 score), 4 weeks) was 5.7* %, the “Cognitive functions (first 5 scale points): improvements, abs.” value (shortened to “Cognitive functions … abs.”) (slight (by 0.5 score), 4 weeks) was 4* and the “Speech functions (items 6b, c, d): improvements, %” value (shortened to “Speech functions … improvements, %”) (slight (by 0.5 score), 4 weeks) was 2.4%. The “Speech functions (items 6b, c, d): improvements, abs.” value (shortened to “Speech functions … improvements, abs.”) (slight (by 0.5 score), 4 weeks) was 1, the “Cognitive functions … %” value (slight (by 0.5 score), 8 weeks) was 25.7* % and the “Cognitive functions … abs.” value (slight (by 0.5 score), 8 weeks) was 18*. The “Speech functions (items 6b, c, d): deteriorations, %” value (from here on “Speech functions … deteriorations, %”) (slight (by 0.5 score), 8 weeks) was 2.4%, the “Speech functions (items 6b, c, d): deteriorations, abs.” value (slight (by 0.5 score), 8 weeks) was 1 and the “Speech functions … improvements, %” value (slight (by 0.5 score), 8 weeks) was 7.14%. For the same molecule, the “Speech functions … improvements, abs.” value (slight (by 0.5 score), 8 weeks) was 3, the “Cognitive functions … %” value (total, 4 weeks) was 11.4% and the “Cognitive functions … abs.” value (total, 4 weeks) was 8. For the same molecule, the “Speech functions … deteriorations, %” value (total, 4 weeks) was 2.4%, the “Speech functions (items 6b, c, d): deteriorations, abs.” value (total, 4 weeks) was 1 and the “Speech functions … improvements, %” value (total, 4 weeks) was 9.5%. The “Speech functions … improvements, abs.” value (total, 4 weeks) was 4, the “Cognitive functions … %” value (total, 8 weeks) was 34.3% and the “Cognitive functions … abs.” value (total, 8 weeks) was 24. The “Speech functions … deteriorations, %” value (total, 8 weeks) was 9.6%, the “Speech functions (items 6b, c, d): deteriorations, abs.” value (total, 8 weeks) was 4 and the “Speech functions … improvements, %” value (total, 8 weeks) was 14.3%. For the same molecule, the “Speech functions … improvements, abs.” value (total, 8 weeks) was 6 and the “Item 10. hearing hallucinations” value (whole period of investigations, all patients) was “Item 10. No hearing hallucinations were observed throught the whole period of investigations”.

Reference: patent US7071206B2, “Agents for treating neurodegenerative disorders” (Medivation, Inc., priority 1995, dated 2006)
